*1 amine or outer side, *2 acyl side, *3 side chain or, on linkers, in order; H or OH if unused. Where a SMILES comes first, the peptide text is derived from it. Bridges are numbered along the chain shown (N, C = ends). [ ]: non-standard residue; d: D form. The star is where a group is joined. Ala(E-styryl) = N[C@@H](C/C=C/c1ccccc1)C(=O)O; dBpa = N[C@H](Cc1ccc(C(=O)c2ccccc2)cc1)C(=O)O; Maleoyl = O=C(/C=C\C(=O)[*:2])[*:1]; NH(CH2CH2O)2CH2CH2NH2 = NCCOCCOCCN*; Cha = N[C@@H](CC1CCCCC1)C(=O)O; Dab = NCC[C@H](N)C(=O)O; Dap = NC[C@H](N)C(=O)O
Legend:
[1] = target: T1, full-length chicken c-Src (Gallus gallus, UniProt P00523); experiment: Z'-LYTE kinase assay (Tyr 02 substrate peptide), full-length c-Src; assay type: biochemical
T1 construct: assayed against full-length chicken c-Src
Protocol: For the FRET-based endpoint assay, kinase assays were performed using Invitrogen's Z′-LYTE kinase assay using the Tyr 02 substrate peptide (based upon the optimal Abl substrate peptide […]) according to the manufacturer's instructions. Assays were performed at near KM ATP concentrations for full-length c-Src and full-length c-Src T338I-50 μM and 7 μM, respectively.
Derivatives of MC4 were synthesized by Fmoc solid-phase peptide synthesis and assayed against full-length chicken c-Src using Invitrogen's Z′-LYTE kinase assay. […] Holding the amino acids at the A and C positions constant, variants of MC4 containing phenylalanine, cyclohexylalanine, pentafluorophenylalanine, and N-methyl-phenylalanine at the B position in place of furylalanine were synthesized and assayed.

[2] = target: T2, Abl (Homo sapiens, UniProt P00519); experiment: Continuous spectrophotometric kinase activity assay; assay type: biochemical
T2 construct: human c-Abl (residues 229-512); made in house
T2 sequence (P00519 229-512): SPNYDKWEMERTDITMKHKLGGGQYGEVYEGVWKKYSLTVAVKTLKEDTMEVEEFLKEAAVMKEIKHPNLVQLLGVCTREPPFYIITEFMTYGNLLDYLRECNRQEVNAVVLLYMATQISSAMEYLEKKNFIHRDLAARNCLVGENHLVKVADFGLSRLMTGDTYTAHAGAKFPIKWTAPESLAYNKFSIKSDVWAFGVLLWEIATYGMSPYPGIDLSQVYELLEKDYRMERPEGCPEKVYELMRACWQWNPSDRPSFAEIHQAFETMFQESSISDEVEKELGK
Description: (§1) Kinase domain constructs of human c-Abl (residues 229-512), chicken c-Src (residues 251-533 and residues 83-533), murine Lck (residues 227-509), and human Hck (residues 166-445) were expressed as previously described (Seeliger, Young et al. 2005; Seeliger, Nagar et al. 2007; the entire contents of each of which are incorporated by reference herein). Mutations were introduced into chicken c-Src (residues 251-533) (T338I, C277Q, L297M) by site-directed mutagenesis and verified by DNA sequencing.
(§2) In vitro kinase inhibition assays were performed using either a continuous spectrophotometric assay or a FRET-based endpoint assay.
(§3) The original characterization of kinase inhibition was performed with a commercial kinase assay that relies on a fluorescently labeled peptide kinase substrate (Z-LYTE, Invitrogen). For further characterization, a continuous spectrophotometric kinase activity assay was employed that is easily adapted to different substrate peptides as well as a wider range of peptide and ATP concentrations.

[3] = target: T3, Src kinase domain (chicken c-Src residues 251-533) (Gallus gallus, UniProt P00523); experiment: as above; assay type: biochemical; settings: Src kinase domain
T3 construct: chicken c-Src (residues 251-533 and residues 83-533); made in house
Description: as §1, §2, §3

[4] = target: T4, Lck (Mus musculus, UniProt P06240); experiment: as above; assay type: biochemical, murine
T4 construct: murine Lck (residues 227-509); made in house
Description: as §1, §2, §3

[5] = target: HCK (Homo sapiens, UniProt P08631); experiment: as above; assay type: biochemical; design: Kinase domain constructs of human c-Abl (residues 229-512), chicken c-Src (residues 251-533 and residues 83-533), murine Lck (residues 227-509), and human Hck (residues 166-445); made in house; settings: 300 μM Src optimal peptide
Description: as §1, §2, §3

[6] = target: Src kinase (Homo sapiens, UniProt P12931); experiment: Z'-LYTE kinase assay (Invitrogen), Src; assay type: biochemical; design: full-length kinase in the Z-LYTE assay vs. kinase domain in the current study; purchased Millipore; settings: for Src kinase inhibition (in words): non-DNA-linked compound; for IC50: Z'-LYTE, ATP near KM
Protocol: Nine macrocycles enriched in the Src selection (FIG. 5) and synthesized as described above were assayed in vitro for the ability to inhibit Src kinase activity. Kinase activity was assayed in the presence of varying concentrations of macrocycle using the FRET-based Z′-LYTE assay (Invitrogen).
(§4) Src IC50 determinations and single-point inhibition measurements were performed using Invitrogen's Z′-LYTE Tyr 02 assay kit according to the manufacturer's protocols. All kinase assays were performed at ATP concentrations near KM,ATP values, except where noted otherwise. Active human Src kinase was obtained from Millipore. For kinome profiling and IC50 determinations against non-Src kinases, compounds were submitted to Invitrogen's SelectScreen Kinase Profiling Service.

[7] = target: Pim1 (Homo sapiens, UniProt P11309); experiment: Z'-LYTE kinase assay (Invitrogen SelectScreen); assay type: biochemical; settings: Pim1
Description: (§5) Macrocycles A10-B1-C11-D5 and A10-B8-C11-D5 were enriched 2- to 6-fold upon selection for binding Akt3, MAPKAPK2, Pim1, and VEGFR2 (FIG. 6). These two macrocycles are structurally similar, sharing nitrophenylalanine (A10) and cyclohexylstatine (C11) building blocks as well as the same lysine scaffold (D5), and differ only at the B building block with either furylalanine (B1) or cyclohexylalanine (B8) (FIG. 6). For assay purposes, the macrocycles were synthesized with C-terminal PEG-diamine linkers to aid solubility, and then tested for the ability to inhibit Akt3, MAPKAPK2, Pim1 and VEGFR2.
as §4

[8] = target: p38α-MAPKAPK2 kinase cascade (P38α-MK2) (Homo sapiens, UniProt P49137+Q16539); experiment: Z'-LYTE kinase cascade assay (Invitrogen SelectScreen); assay type: biochemical
Description: as §5, §4

[9] = 5 μM ATP, 100 μM Src optimal peptide
[10] = 5 μM ATP, 300 μM Src optimal peptide
[11] = 250 μM ATP, 300 μM Src optimal peptide

Chain of Src kinase (P12931 whole entry, the tested form may be a part): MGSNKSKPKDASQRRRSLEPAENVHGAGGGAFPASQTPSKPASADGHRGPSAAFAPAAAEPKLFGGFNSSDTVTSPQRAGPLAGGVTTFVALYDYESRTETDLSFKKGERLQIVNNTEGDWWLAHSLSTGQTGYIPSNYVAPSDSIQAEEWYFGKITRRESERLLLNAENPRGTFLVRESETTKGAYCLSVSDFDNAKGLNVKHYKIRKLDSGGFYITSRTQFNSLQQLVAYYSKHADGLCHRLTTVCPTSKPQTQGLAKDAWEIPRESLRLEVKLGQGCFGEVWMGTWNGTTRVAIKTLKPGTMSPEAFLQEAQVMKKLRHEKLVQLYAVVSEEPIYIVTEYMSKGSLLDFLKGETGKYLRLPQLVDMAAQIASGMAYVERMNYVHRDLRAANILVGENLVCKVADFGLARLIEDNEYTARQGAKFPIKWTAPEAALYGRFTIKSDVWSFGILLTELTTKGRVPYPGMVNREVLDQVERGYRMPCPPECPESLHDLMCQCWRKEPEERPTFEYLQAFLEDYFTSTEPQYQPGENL
T4 sequence (P06240 227-509): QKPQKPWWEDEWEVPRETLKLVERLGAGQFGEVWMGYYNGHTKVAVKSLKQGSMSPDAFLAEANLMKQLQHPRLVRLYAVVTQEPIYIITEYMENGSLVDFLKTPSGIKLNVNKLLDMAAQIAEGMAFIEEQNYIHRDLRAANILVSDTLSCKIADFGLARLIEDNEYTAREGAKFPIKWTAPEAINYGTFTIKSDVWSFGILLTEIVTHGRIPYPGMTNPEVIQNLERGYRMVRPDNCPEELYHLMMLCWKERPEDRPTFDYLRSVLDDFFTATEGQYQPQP
Chain of HCK (P08631 262-515 limits assumed): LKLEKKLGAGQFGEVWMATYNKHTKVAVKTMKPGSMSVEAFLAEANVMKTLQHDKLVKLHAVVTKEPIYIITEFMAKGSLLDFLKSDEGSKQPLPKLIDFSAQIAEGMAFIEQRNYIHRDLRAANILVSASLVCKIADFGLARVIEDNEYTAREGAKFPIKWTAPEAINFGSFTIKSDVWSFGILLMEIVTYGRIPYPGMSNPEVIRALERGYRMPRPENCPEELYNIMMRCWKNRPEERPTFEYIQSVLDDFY
Chain of p38α-MAPKAPK2 kinase cascade (P38α-MK2) (Q16539 whole entry): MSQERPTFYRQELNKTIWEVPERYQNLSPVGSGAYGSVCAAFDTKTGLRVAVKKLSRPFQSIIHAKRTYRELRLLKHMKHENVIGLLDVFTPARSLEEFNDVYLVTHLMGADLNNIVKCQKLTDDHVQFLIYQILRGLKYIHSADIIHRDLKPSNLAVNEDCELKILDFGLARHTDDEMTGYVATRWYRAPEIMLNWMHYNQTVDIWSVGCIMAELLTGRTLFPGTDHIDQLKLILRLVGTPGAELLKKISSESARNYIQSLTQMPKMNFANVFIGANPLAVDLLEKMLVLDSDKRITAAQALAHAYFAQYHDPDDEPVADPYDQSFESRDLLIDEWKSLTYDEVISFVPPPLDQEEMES
Chain of p38α-MAPKAPK2 kinase cascade (P38α-MK2) (P49137 whole entry): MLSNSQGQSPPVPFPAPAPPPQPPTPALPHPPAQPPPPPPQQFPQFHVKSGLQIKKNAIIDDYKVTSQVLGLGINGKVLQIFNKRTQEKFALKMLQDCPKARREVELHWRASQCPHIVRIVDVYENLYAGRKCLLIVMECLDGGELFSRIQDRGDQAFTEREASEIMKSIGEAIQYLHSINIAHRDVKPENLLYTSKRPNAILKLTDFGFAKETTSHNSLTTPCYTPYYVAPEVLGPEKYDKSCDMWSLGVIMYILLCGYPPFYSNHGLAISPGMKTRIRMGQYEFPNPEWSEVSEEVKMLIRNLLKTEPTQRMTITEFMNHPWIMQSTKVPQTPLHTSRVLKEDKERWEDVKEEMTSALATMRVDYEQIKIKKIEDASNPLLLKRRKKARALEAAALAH
Chain of Pim1 (P11309 whole entry): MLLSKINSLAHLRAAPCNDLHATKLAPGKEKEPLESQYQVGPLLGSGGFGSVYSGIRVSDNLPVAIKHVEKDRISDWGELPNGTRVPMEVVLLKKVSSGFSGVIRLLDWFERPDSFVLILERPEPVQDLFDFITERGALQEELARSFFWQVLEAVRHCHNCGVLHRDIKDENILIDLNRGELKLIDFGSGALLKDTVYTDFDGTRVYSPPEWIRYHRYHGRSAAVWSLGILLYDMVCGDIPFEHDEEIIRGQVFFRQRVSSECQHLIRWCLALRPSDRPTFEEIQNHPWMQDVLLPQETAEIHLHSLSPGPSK

NC(=O)[C@@H]1CCCNC(=O)[C@H](Cc2ccc([N+](=O)[O-])cc2)NC(=O)[C@H](Cc2ccccc2)NC(=O)[C@H](CC2CC2)NC(=O)/C=C/C(=O)N1 [MC4.1]
increase in Src inhibition potency relative to parent macrocycle [1]: 3 fold
IC50 ([1]; full-length chicken c-Src, ATP near KM (50 μM)): 0.08 µM
IC50 [2, 9]: > 100 µM
IC50 [2, 10]: > 100 µM
IC50 [2, 11]: > 100 µM
IC50 [3, 9]: 0.6 µM
IC50 [3, 10]: 0.8 µM
IC50 [3, 11]: 1.8 µM
IC50 [4, 9]: 5.2 µM
IC50 [4, 10]: 5.5 µM
IC50 [4, 11]: 10 µM
IC50 ([5]; 5 μM ATP): 6.3 µM
IC50 ([5]; 250 μM ATP): 11 µM

CS(=O)(=O)CC[C@@H]1NC(=O)[C@H](Cc2ccco2)NC(=O)[C@H](CC2CC2)NC(=O)C=CC(=O)N[C@H](C(N)=O)CCNC1=O [Macrocycle A9-B1-C5-D7]
Src kinase inhibition (in words) [6]: did not inhibit Src

NC(=O)[C@@H]1CCCNC(=O)[C@H](Cc2ccc([N+](=O)[O-])cc2)NC(=O)[C@H](Cc2ccco2)NC(=O)[C@H](CC2CC2)NC(=O)C=CC(=O)N1 [Macrocycle A10-B1-C5-D6]
difference in potency between cis and trans stereoisomers (Src) [6]: ~10 fold

NC(=O)[C@@H]1CCNC(=O)[C@H](Cc2ccc([N+](=O)[O-])cc2)NC(=O)[C@H](Cc2ccco2)NC(=O)[C@H](CC2CC2)NC(=O)/C=C\C(=O)N1 [cis-A10-B1-C5-D7]
IC50 [6]: 8.9 µM

C=CC[C@@H]1NC(=O)/C=C\C(=O)N[C@H](C(N)=O)CCNC(=O)[C@H](CCCNC(=O)c2cnccn2)NC(=O)[C@H](Cc2ccco2)NC1=O [cis-A11-B1-C3-D7]
IC50 [6]: 10 µM

NC(=O)[C@@H]1CCCCNC(=O)[C@H](CCCNC(=O)c2cnccn2)NC(=O)[C@H](Cc2ccco2)NC(=O)[C@H](CC2CC2)NC(=O)/C=C\C(=O)N1 [cis-A11-B1-C5-D5]
IC50 [6]: 85 µM

NC(=O)[C@@H]1CCNC(=O)[C@H](CCCNC(=O)c2cnccn2)NC(=O)[C@H](Cc2ccco2)NC(=O)[C@H](C/C=C/c2ccccc2)NC(=O)/C=C\C(=O)N1 [cis-A11-B1-C10-D7]
IC50 [6]: 7 µM

NC(=O)[C@@H]1CCNC(=O)[C@H](CCCNC(=O)c2cnccn2)NC(=O)[C@H](CC2CCCCC2)NC(=O)[C@H](CC2CC2)NC(=O)/C=C\C(=O)N1 [cis-A11-B8-C5-D7]
IC50 [6]: 36 µM

NCCOCCOCCNC(=O)[C@@H]1CCNC(=O)/C=C\C(=O)N[C@@H](C/C=C/c2ccccc2)C(=O)N[C@@H](CC2CCCCC2)C(=O)N[C@H](Cc2ccc(C(=O)c3ccccc3)cc2)C(=O)N1 [cis-A12-B8-C10-D3] ([Ala(E-styryl)][Cha][dBpa][Dab]-{NH(CH2CH2O)2CH2CH2NH2}; linker N-4 via Maleoyl)
IC50 [7]: 25 µM
IC50 [8]: 12 µM

NCCOCCOCCNC(=O)[C@@H]1CNC(=O)/C=C\C(=O)N[C@@H](C/C=C/c2ccccc2)C(=O)N[C@@H](CC2CCCCC2)C(=O)N[C@H](Cc2ccc(C(=O)c3ccccc3)cc2)C(=O)N1 [cis-A12-B8-C10-D4] ([Ala(E-styryl)][Cha][dBpa][Dap]-{NH(CH2CH2O)2CH2CH2NH2}; linker N-4 via Maleoyl)
IC50 [7]: 100 µM
IC50 [8]: 20 µM

CS(=O)(=O)CC[C@@H]1NC(=O)[C@H](Cc2ccco2)NC(=O)[C@H](CC2CC2)NC(=O)/C=C/C(=O)N[C@H](C(N)=O)CCNC1=O [trans-A9-B1-C5-D7]
IC50 [6]: > 100 µM

NC(=O)[C@@H]1CCNC(=O)[C@H](Cc2ccc([N+](=O)[O-])cc2)NC(=O)[C@H](Cc2ccco2)NC(=O)[C@H](CC2CC2)NC(=O)/C=C/C(=O)N1 [trans-A10-B1-C5-D7]
IC50 [6]: 1.5 µM

C=CC[C@@H]1NC(=O)/C=C/C(=O)N[C@H](C(N)=O)CCNC(=O)[C@H](CCCNC(=O)c2cnccn2)NC(=O)[C@H](Cc2ccco2)NC1=O [trans-A11-B1-C3-D7]
IC50 [6]: 48 µM

NC(=O)[C@@H]1CCCCNC(=O)[C@H](CCCNC(=O)c2cnccn2)NC(=O)[C@H](Cc2ccco2)NC(=O)[C@H](CC2CC2)NC(=O)/C=C/C(=O)N1 [trans-A11-B1-C5-D5]
IC50 [6]: > 100 µM

NC(=O)[C@@H]1CCNC(=O)[C@H](CCCNC(=O)c2cnccn2)NC(=O)[C@H](Cc2ccco2)NC(=O)[C@H](CC2CC2)NC(=O)/C=C/C(=O)N1 [trans-A11-B1-C5-D7]
IC50 [6]: 12 µM

NC(=O)[C@@H]1CCNC(=O)[C@H](CCCNC(=O)c2cnccn2)NC(=O)[C@H](Cc2ccco2)NC(=O)[C@H](C/C=C/c2ccccc2)NC(=O)/C=C/C(=O)N1 [trans-A11-B1-C10-D7]
IC50 [6]: 21 µM

NC(=O)[C@@H]1CCNC(=O)[C@H](CCCNC(=O)c2cnccn2)NC(=O)[C@H](CC2CCCCC2)NC(=O)[C@H](CC2CC2)NC(=O)/C=C/C(=O)N1 [trans-A11-B8-C5-D7]
IC50 [6]: > 100 µM

NC(=O)[C@@H]1CCNC(=O)[C@H](CCCNC(=O)c2cnccn2)NC(=O)[C@H](CC2CCCCC2)NC(=O)[C@H](C/C=C/c2ccccc2)NC(=O)/C=C/C(=O)N1 [trans-A11-B8-C10-D7]
IC50 [6]: > 100 µM

NC(=O)[C@@H]1CCCNC(=O)[C@H](Cc2ccccc2)NC(=O)[C@H](Cc2ccco2)NC(=O)[C@H](CC2CC2)NC(=O)/C=C/C(=O)N1 [trans-Phe-B1-C5-D6]
Src kinase inhibition (in words) [6]: abolished Src inhibition

Source: patent US8975232B2, “Macrocyclic kinase inhibitors and uses thereof” (President and Fellows of Harvard College, priority 2010, dated 2015)
